# Data reported in the supplement of paper PMC10307832.
# Columns and labels:
# Assay in all cases: relative viability (nuclei count vs DMSO), 5 days (fraction); higher = more cells survive
# [1] = compound: C1/C(=C\C2=CC=CS2)/C(=O)/C(=C/C3=CC=CS3)/C1 + CC(=O)c1c(C)c2cnc(Nc3ccc(N4CCNCC4)cn3)nc2n(C2CCCC2)c1=O [Palbociclib] (partner 0.5 µM)
# Procedure, shortened: (§1)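 Cells from lung cancer lines were seeded into 1536-well plates and, one day later, dosed by pin tool. Treatments were either a single drug or a fixed dose of an anchor drug with five library-drug doses (not always all listed) in √10 steps. After 5 days, nuclei were stained in a one-step fixation (final 0.05% Triton X-100, 1% formaldehyde, 1 ug/ml Hoechst) and counted on 4× images, and relative viability is the treated-to-vehicle nuclei ratio, as the median of duplicate plates.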
# [2] = compound: C1=CC(=CC=C1C2=CC(=C(S2)NC(=O)N)C(=O)N)F [TPCA-1] + CC(=O)Nc1cccc(-n2c(=O)n(C3CC3)c(=O)c3c(Nc4ccc(I)cc4F)n(C)c(=O)c(C)c32)c1 [Trametinib] (partner 0.02 µM)
# Procedure, shortened: as §1
# [3] = compound: C1=CC(=CC=C1C2=CC(=C(S2)NC(=O)N)C(=O)N)F [TPCA-1] + Cc1nc(NC(=O)N2CCC[C@H]2C(N)=O)sc1-c1ccnc(C(C)(C)C(F)(F)F)c1 [Alpelisib] (partner 2 µM)
# Procedure, shortened: as §1
# [4] = compound: C[C@]12O[C@H](C[C@]1(O)CO)n1c3ccccc3c3c4c(c5c6ccccc6n2c5c31)CNC4=O [Lestaurtinib] + CCNC(=O)c1noc(-c2cc(C(C)C)c(O)cc2O)c1-c1ccc(CN2CCOCC2)cc1 [Luminespib] (partner 0.01 µM)
# Procedure, shortened: as §1
Cell Line,relative viability ([1]; first compound 0.2 µM),relative viability ([1]; first compound 0.6325 µM),relative viability ([1]; first compound 2 µM),relative viability ([1]; first compound 6.325 µM),relative viability ([1]; first compound 20 µM),relative viability ([2]; first compound 0.04 µM),relative viability ([2]; first compound 0.1265 µM),relative viability ([2]; first compound 0.4 µM),relative viability ([2]; first compound 1.265 µM),relative viability ([2]; first compound 4 µM),relative viability ([3]; first compound 0.04 µM),relative viability ([3]; first compound 0.1265 µM),relative viability ([3]; first compound 0.4 µM),relative viability ([3]; first compound 1.265 µM),relative viability ([3]; first compound 4 µM),relative viability ([4]; first compound 0.005 µM),relative viability ([4]; first compound 0.01581 µM),relative viability ([4]; first compound 0.05 µM),relative viability ([4]; first compound 0.1581 µM),relative viability ([4]; first compound 0.5 µM)
NCI-H1666,0.68,0.645,0.624,0.521,0.672,0.838,0.7,0.879,0.804,0.787,1.08,0.813,0.925,1.04,0.747,1.05,1.14,1.46,0.959,0.609
NCI-H1915,0.507,0.55,0.515,0.459,0.5,0.343,0.272,0.286,0.279,0.263,1.11,1.05,1.08,1.03,0.936,0.766,0.893,0.471,0.663,0.259
NCI-H2009,0.178,0.217,0.255,–,0.208,0.309,0.249,0.303,0.321,0.211,1.2,1.13,1.13,1.1,1.2,1.13,1.08,0.993,0.858,0.637
ChaGo-K-1,0.956,0.954,0.84,0.719,0.479,0.895,0.715,0.876,0.822,0.676,–,–,–,–,–,0.62,0.706,0.698,0.479,0.223
COR-L 105,0.379,0.405,0.443,0.43,0.401,0.542,0.321,0.422,0.505,0.407,1.07,0.892,0.987,0.919,0.898,0.843,0.826,0.532,0.67,0.263
NCI-H2170,0.386,0.382,0.376,0.248,0.393,0.903,0.907,0.937,0.866,0.455,0.906,0.697,0.803,0.733,0.526,0.501,0.519,0.593,0.383,0.266
A549,–,–,–,–,–,–,–,–,–,–,0.891,0.824,0.911,0.736,0.296,–,–,–,–,–
SW 1573,0.444,0.459,0.516,0.366,0.347,0.611,0.569,0.535,0.516,0.545,0.872,0.631,0.659,0.709,0.784,0.218,0.236,0.182,0.315,0.131
NCI-H1975,0.661,0.547,0.426,0.506,0.549,0.358,0.365,0.392,0.43,0.147,0.768,0.561,0.611,0.561,0.279,0.538,0.171,0.199,0.137,0.159
Calu-6,–,–,–,–,–,–,–,–,–,–,0.982,0.988,1.04,0.85,0.539,–,–,–,–,–
